Results on 37 molecules are retold here after US10688082B2, “Aminopyrazine compounds with A2A antagonist properties” (Merck Sharp & Dohme Corp., priority 2015, dated 2020).

SMILES strings stand for the structures.

What is called Ki is a measure of affinity in units of concentration, obtained from inhibition or displacement. The low end stands for higher affinity, the high end for lower affinity.

T1 sequence (P29274 whole entry): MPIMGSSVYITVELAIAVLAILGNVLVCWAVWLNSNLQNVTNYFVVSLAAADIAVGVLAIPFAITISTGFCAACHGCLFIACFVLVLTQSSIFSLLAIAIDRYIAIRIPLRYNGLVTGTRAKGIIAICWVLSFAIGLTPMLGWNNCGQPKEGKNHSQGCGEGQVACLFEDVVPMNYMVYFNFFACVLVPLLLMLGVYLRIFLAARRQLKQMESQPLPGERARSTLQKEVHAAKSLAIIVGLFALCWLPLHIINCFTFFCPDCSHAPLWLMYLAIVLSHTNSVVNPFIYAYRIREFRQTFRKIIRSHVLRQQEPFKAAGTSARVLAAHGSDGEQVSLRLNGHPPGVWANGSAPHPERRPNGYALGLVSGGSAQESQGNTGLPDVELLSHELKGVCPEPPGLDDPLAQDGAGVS

One test addresses T1, human A2a receptor (Homo sapiens, UniProt P29274).
T1 construct: purchased Perkin-Elmer RBHA2AM400UA; host or cells: HEK293 cells (membranes)
As to the kind of experiment: Competition binding assay using Scintillation Proximity technology (A2a activity). Conditions: membranes from HEK293 cells expressing the human A2a receptor; 0.5 nM tritiated ligand; Cheng-Prusoff. How it is done:
Binding affinities of compounds of the invention for the human A2a receptor were determined in a competition binding assay using Scintillation Proximity technology. Thus, […] from HEK293 cells expressing the human A2a receptor were incubated with a compound of the invention at concentrations ranging from 3000 nM to 0.15 nM in a reaction mixture containing also 0.5 nM of a tritiated form of 5-amino-7-[2-phenethyl]-2-(furan-2-yl)-7H-pyrazolo[4,3-e][1,2,4]triazolo[1,5-c]pyrimidine (the tritiated compound) and 100 μg of wheat germ agglutin-coated yttrium silicate SPA beads for one hour at room temperature with agitation. The beads were then allowed to settle to the bottom of the wells for 1 hr, after which the membrane-associated radioactivity was determined by scintillation counting in a TopCount microplate reader. Ki values were determined using the Cheng-Prusoff equation.
HEK293 cells expressing the human, rat, dog or monkey adenosine 2a receptor (Purchased from Perkin-Elmer # RBHA2AM400UA).
The Tritiated compound was prepared according to published methods.
Wheat germ agglutinin-coated yttrium silicate SPA beads (GE Healthcare # RPNQ0023). Dilute to 25 mg/ml in assay buffer.
Assay Buffer was prepared using Dulbecco's calcium and magnesium free phosphate buffered saline+10 mM MgCl2
Adenosine deaminase from calf intestine, 10 mg/2 ml (Roche #10 102 105 001).
A2a antagonist standard (9-chloro-1-(2-furanyl)-[1,2,4]triazolo1,5-c]quinazolin-5-amine from Tocris Bioscience)
Make eight 1:3 serial dilutions in 100% DMSO from a 3 mM compound stock
Transfer 50 nl of compound into a 384-well OptiPlate (Perkin Elmer).
Typically, final concentrations of compound used in the assay ranged from 3000 nM to 0.152 nM.
Dilute a solution of the Tritiated compound to 1.25 nM in assay buffer. This is a 2.5× solution. The final concentration in the assay is 0.5 nM. Calculate the concentration by counting two 5 μl aliquots.
Use 0.25 ug of membrane/well. Dilute membranes to 9.7 μg/ml in assay buffer. Treat with 20 ug/ml adenosine deaminase (ADA) for 15 minutes at room temperature to degrade endogenous adenosine.
Use 100 μg/well wheat germ agglutinin-coated yttrium silicate SPA beads.
Mix ADA-treated membranes and SPA beads together for 30 min prior to assay.
To the Perkin-Elmer Optiplate-384 containing the compound titration add 20 μl of 2.5× solution of the Tritiated compound and 30 μl of the membrane-bead mixture. Incubate for one hour at room temperature with agitation.
Include total binding (assay buffer+1% DMSO) and non-specific binding (CGS15943, 1 μM) wells.
Allow the beads to settle for one hour.
A curve fitting program (i.e., Prism, Activity Base, Chemcart) is used to determine the EC50. The Ki value is calculated using the Cheng-Prusoff equation. K i=EC50/(1+(radioligand concentration/Kd))
(In general: In a scintillation proximity assay essentially only radioactivity close to the scintillant gives light.)
As for `COc1cccc2c1nc(N)n1nc(Cc3ccc(C(F)(F)F)cc3)cc21` [Ex-35, 7-methoxy-2-(4-(trifluoromethyl)benzyl)pyrazolo[1,5-c]quinazolin-5-amine], the Ki was found to be 130 nM. Still for that read-out and setting: for `COc1cccc2c1nc(N)n1nc(Cc3cccc(C(F)(F)F)c3)cc21` [Ex-36, 7-methoxy-2-(3-(trifluoromethyl)benzyl)pyrazolo[1,5-c]quinazolin-5-amine] the value was 12 nM; for `COc1cccc2c1nc(N)n1nc(Cc3cnn(C)c3)cc21` [Ex-37, 7-methoxy-2-((1-methyl-1H-pyrazol-4-yl)methyl)pyrazolo[1,5-c]quinazolin-5-amine], 15 nM; for `COc1cccc2c1nc(N)n1nc(Cc3c(F)cccc3Cl)cc21` [Ex-38, 2-(2-chloro-6-fluorobenzyl)-7-methoxypyrazolo[1,5-c]quinazolin-5-amine], 25 nM.

Regarding `COc1cccc2c1nc(N)n1nc(Cc3ccc(F)c(F)c3F)cc21` [Ex-39, 7-methoxy-2-(2,3,4-trifluorobenzyl)pyrazolo[1,5-c]quinazolin-5-amine], the Ki is 27 nM.

As to `COc1cccc2c1nc(N)n1nc(Cc3cccc(F)c3F)cc21` [Ex-40, 2-(2,3-difluorobenzyl)-7-methoxypyrazolo[1,5-c]quinazolin-5-amine], the affinity corresponds to a Ki of 6 nM. Same read-out and setting: under `COc1cccc2c1nc(N)n1nc(Cc3cccc4[nH]ccc34)cc21` [Ex-41, 2-((1H-indol-4-yl)methyl)-7-methoxypyrazolo[1,5-c]quinazolin-5-amine] stands 5 nM.

In turn, `COc1cccc2c1nc(N)n1nc(Cc3c(F)cccc3F)cc21` [Ex-42, 2-(2,6-difluorobenzyl)-7-methoxypyrazolo[1,5-c]quinazolin-5-amine] registered a Ki of 3 nM.

The molecule `COc1cccc2c1nc(N)n1nc(Cc3cccc(Cl)c3Cl)cc21` [Ex-43, 2-(2,3-dichlorobenzyl)-7-methoxypyrazolo[1,5-c]quinazolin-5-amine] had a Ki of 80 nM.

The molecule `COc1cccc2c1nc(N)n1nc(Cc3cccc4cnccc34)cc21` [Ex-44, 2-(isoquinolin-5-ylmethyl)-7-methoxypyrazolo[1,5-c]quinazolin-5-amine] had a Ki of 18 nM.

Molecule `COc1cccc2c1nc(N)n1nc(Cc3ccccc3Cl)cc21` [Ex-45, 2-(2-chlorobenzyl)-7-methoxypyrazolo[1,5-c]quinazolin-5-amine] yielded a Ki of 10 nM. The same measure, in the same setting: under `COc1cccc2c1nc(N)n1nc(Cc3ccccc3OC(F)(F)F)cc21` [Ex-46, 7-methoxy-2-(2-(trifluoromethoxy)benzyl)pyrazolo[1,5-c]quinazolin-5-amine] stands 34 nM; under `COc1cccc2c1nc(N)n1nc(Cc3ccccc3N(C)C)cc21` [Ex-47, 2-(2-(dimethylamino)benzyl)-7-methoxypyrazolo[1,5-c]quinazolin-5-amine], 1 nM.

Molecule `COCc1cccc(Cc2cc3c4cccc(OC)c4nc(N)n3n2)c1` [Ex-48, 7-methoxy-2-(3-(methoxymethyl)benzyl)pyrazolo[1,5-c]quinazolin-5-amine] registered a Ki of 40 nM.

The molecule `COc1cccc2c1nc(N)n1nc(Cc3cccc(Cl)c3)cc21` [Ex-49, 2-(3-chlorobenzyl)-7-methoxypyrazolo[1,5-c]quinazolin-5-amine] gave a Ki of 35 nM. The same measure, in the same setting: for `COc1cccc2c1nc(N)n1nc(Cc3ccccc3C#N)cc21` [Ex-50, 2-((5-amino-7-methoxypyrazolo[1,5-c]quinazolin-2-yl)methyl)benzonitrile] the value was 2 nM; for `COc1cccc2c1nc(N)n1nc(Cc3ccccc3OCc3ccccc3)cc21` [Ex-51, 2-(2-(benzyloxy)benzyl)-7-methoxypyrazolo[1,5-c]quinazolin-5-amine], 128 nM; for `COc1cccc2c1nc(N)n1nc(Cc3cccc(C#N)c3)cc21` [Ex-52, 3-((5-amino-7-methoxypyrazolo[1,5-c]quinazolin-2-yl)methyl)benzonitrile], 33 nM.

On to `COc1cccc2c1nc(N)n1nc(Cc3cccc4ccsc34)cc21` [Ex-53, 2-(benzo[b]thiophen-7-ylmethyl)-7-methoxypyrazolo[1,5-c]quinazolin-5-amine], for which the Ki amounted to 48 nM.

Consider `COc1cccc2c1nc(N)n1nc(Cc3cccc(-n4nc(C)cc4C)c3)cc21` [Ex-54, 2-(3-(3,5-dimethyl-1H-pyrazol-1-yl)benzyl)-7-methoxypyrazolo[1,5-c]quinazolin-5-amine], for which the Ki came out at 139 nM. Same read-out and setting: for `COc1cccc2c1nc(N)n1nc(Cc3ccccc3OC(F)F)cc21` [Ex-55, 2-(2-(difluoromethoxy)benzyl)-7-methoxypyrazolo[1,5-c]quinazolin-5-amine] the value was 10 nM; for `COc1cccc2c1nc(N)n1nc(Cc3cccc4c3CNC4=O)cc21` [Ex-56, 4-((5-amino-7-methoxypyrazolo[1,5-c]quinazolin-2-yl)methyl)isoindolin-1-one], 49 nM. Same read-out and setting: for `COc1cccc2c1nc(N)n1nc(Cc3cccc4nc(C)ccc34)cc21` [Ex-57, 7-methoxy-2-((2-methylquinolin-5-yl)methyl)pyrazolo[1,5-c]quinazolin-5-amine] the value was 165 nM; for `COc1cccc2c1nc(N)n1nc(Cc3cccc(-n4cccn4)c3)cc21` [Ex-58, 2-(3-(1H-pyrazol-1-yl)benzyl)-7-methoxypyrazolo[1,5-c]quinazolin-5-amine], 69 nM. On the same count and under the same terms, for `COc1cccc2c1nc(N)n1nc(Cc3cccc(F)c3C)cc21` [Ex-59, 2-(3-fluoro-2-methylbenzyl)-7-methoxypyrazolo[1,5-c]quinazolin-5-amine] the value was 21 nM. `COc1cccc2c1nc(N)n1nc(Cc3cccc4ccc(C)nc34)cc21` [Ex-60, 7-methoxy-2-((2-methylquinolin-8-yl)methyl)pyrazolo[1,5-c]quinazolin-5-amine] showed a Ki of 22 nM. Same read-out and setting: for `COc1cccc2c1nc(N)n1nc(Cc3cccc(C#N)c3F)cc21` [Ex-61, 3-((5-amino-7-methoxypyrazolo[1,5-c]quinazolin-2-yl)methyl)-2-fluorobenzonitrile] the value was 21 nM. Still for that read-out and setting: under `COc1cccc2c1nc(N)n1nc(Cc3cc(Cl)cc(C#N)c3)cc21` [Ex-62, 3-((5-amino-7-methoxypyrazolo[1,5-c]quinazolin-2-yl)methyl)-5-chlorobenzonitrile] stands 134 nM; under `COc1cccc2c1nc(N)n1nc(Cc3ccccc3-n3cccn3)cc21` [Ex-63, 2-(2-(1H-pyrazol-1-yl)benzyl)-7-methoxypyrazolo[1,5-c]quinazolin-5-amine], 7 nM; under `COc1cccc2c1nc(N)n1nc(Cc3cc(F)ccc3F)cc21` [Ex-64, 2-(2,5-difluorobenzyl)-7-methoxypyrazolo[1,5-c]quinazolin-5-amine], 2 nM. The same measure, in the same setting: for `COc1cccc2c1nc(N)n1nc(Cc3cc(F)cc(F)c3)cc21` [Ex-65, 2-(3,5-difluorobenzyl)-7-methoxypyrazolo[1,5-c]quinazolin-5-amine] the value was 5 nM. As for `COc1cccc2c1nc(N)n1nc(CN3CCN(c4ccccc4)CC3)cc21` [Ex-66, 7-methoxy-2-((4-phenylpiperazin-1-yl)methyl)pyrazolo [1,5-c]quinazolin-5-amine], the affinity corresponds to a Ki of 145 nM. On the same count and under the same terms, under `COc1cccc2c1nc(N)n1nc(CN3CC(O)C3)cc21` [Ex-67, 1-((5-amino-7-methoxypyrazolo[1,5-c]quinazolin-2-yl)methyl)azetidin-3-ol] stands 473 nM; under `COc1cccc2c1nc(N)n1nc(CN3Cc4ccc(F)cc4C3)cc21` [Ex-68, 2-((5-fluoroisoindolin-2-yl)methyl)-7-methoxypyrazolo[1,5-c]quinazolin-5-amine], 24 nM; under `COc1cccc2c1nc(N)n1nc(CN3Cc4cccnc4C3)cc21` [Ex-69, 2-((5,7-dihydro-6H-pyrrolo[3,4-b]pyridin-6-yl)methyl)-7-methoxypyrazolo[1,5-c]quinazolin-5-amine], 14 nM. On the same count and under the same terms, under `COc1cccc2c1nc(N)n1nc(C(=O)N3CCN(Cc4ccccc4)CC3)cc21` [Ex-71, (5-amino-7-methoxypyrazolo[1,5-c]quinazolin-2-yl)(4-benzylpiperazin-1-yl)methanone] stands 11 nM.

Still in this test, the particulars now being: same protocol.
Turning to `COc1cccc2c1nc(N)n1nc(C(=O)N3CCN(c4ccccn4)CC3)cc21` [Ex-70, (5-amino-7-methoxypyrazolo[1,5-c]quinazolin-2-yl)(4-(pyridin-2-yl)piperazin-1-yl)methanone], the Ki was 7 nM.
